# Tests used:
# Jurkat cells = experiment: Combined detection of hypoxia and superoxide in live cells by flow cytometry; assay type: cell-based, human; details: CD-1 5 μM in combination with superoxide detection reagent, flow cytometry
# Protocol: HeLa, U-2 OS, and Jurkat cell lines were cultured as described in Examples 7 and 9. Stock solutions of the probes and inhibitors were prepared as described in Examples 7 and 10.
# The day before the experiment, HeLa and U-2 OS cells were seeded in 6-well tissue culture plates at a density of 5×10^5 cells/well. Jurkat cells were collected in logarithmic phase of growth and aliquoted at a density of 5×10^5 cells/sample. On the day of the experiment, the cells were preloaded with either hypoxia or ROS-detecting probes only or with the combination of hypoxia and ROS-detecting probes with compatible spectral characteristics. Samples stained with single hypoxia probes or with two ROS-detecting probes were made to validate data obtained with the combination of hypoxia and redox probes. The probes used in the experiment and their final concentrations in cell culture medium were as follows: CD-1(5 μM) and CD-6 (1 μM), DCFDA, peroxide/peroxynitrite/hydroxyl detection probe and HE, specific superoxide detection reagent (1 μM for both redox probes). Hypoxia was induced in the cells as described in Example 7. Additionally, cells were treated with different general and specific ROS inducers and stained with ROS-detecting probes to control ROS production and staining. Post-treatment, the adherent cells (HeLa and U-2 OS) were collected by trypsinization, re-suspended in 0.5 mL of fresh PBS and analyzed using flow cytometry. Jurkat cells were analyzed without washing. Flow cytometry experiments were performed using an FACS Calibur benchtop flow cytometer (BD Biosciences) equipped with a blue (488 nm) laser, and the fluorescence was recorded in the FITC (530/30 filter), PE (585/42 filter) and PerCP (670 LP filter) channels. Data were collected uncompensated, also compensation corrections were performed using unstained cells, and cells stained with each single dye separately (CD-1, CD-6, DCFDA or HE). To quantify data, quadrant gates were set using untreated samples.
# HeLa cells = experiment: Combined detection of hypoxia and redox status in live cells by fluorescent microscopy; assay type: cell-based, human; details: 5 μM; all four hypoxic samples (anoxia, CoCl2, DFO, DMOG)
# Protocol: HeLa and U-2 OS cells were cultured as described in Example 7. Stock solutions of CD-1 and CD-5 and various hypoxia inducers were prepared and stored as described in Examples 7 and 8. Additionally, 5 mM stock solutions (5000×) of 2′,7′-dichloro-fluorescein diacetate (DCFDA, an indicator of global ROS generation) and dihydroethidium (DHE, specific indicator of superoxide generation) were made in anhydrous DMF. DMSO was avoided, since this solvent is a hydroxyl radical scavenger and its presence may affect ROS/RNS production in cellular systems. The following stocks of ROS inducers were prepared in DMF: 10 mM pyocyanin (general ROS generating compound, 100×), 20 mM antimycin A (general ROS inducer, 400×), 50 mM pyrogallol (a superoxide radical generator, 1000×), 1 mM t-butyl hydroperoxide (TBHP, peroxide radical inducer, 10,000×). ROS probes and inducers were aliquoted and stored at −80° C.
# The day before the experiment, the cells were seeded on 4-well microscope slides (Cel-Line™ Brand, Portsmouth, N.H.) at a density 1×10^4 cells/well (2×10^4 cells/cm^2). On the day of the experiment, the cells were preloaded with both hypoxia probe (5 μM final concentration in cell culture medium) and ROS detecting reagent with suitable spectral characteristics. Two ROS-detecting probes, DCFDA and DHE, were used in a pilot experiment in conjunction with hypoxia self-immolative probes. The hydrolyzed product of DCFDA, DCFH, is considered to be a general indicator of ROS, reacting with H2O2 (in the presence of peroxidases), ONOO^−, lipid hydroperoxides, and hydroxyl radicals. The oxidized product can be detected by strong fluorescence emission at around 525 nm when excited at around 488 nm. Because H2O2 is a secondary product of O2.^−, DCFH fluorescence has been used to implicate O2.^− production. The direct reaction of DHE with O2.^− yields a very specific fluorescent product, requiring no conversion to H2O2. The product of the DHE reaction with O2.^− fluoresces strongly at around 600 nm when excited at 500-530 nm.
# Tested pairs of the probes were as follows: CD-5 with DCFDA or DHE, and CD-1 with DHE. A hypoxic state was induced in the cells as described in Example 7. Control slides were singly-stained with hypoxia or ROS-detecting probes only. Additional slides were treated with different general and specific ROS inducers and stained with ROS-detecting probes to control ROS staining. Post-treatment, the slides were washed twice with PBS, coverslipped and visualized using an Olympus BX-51 fluorescence microscope and a DAPI filter set (350 ex/470em) for CD-5, an FITC filter set (490ex/525em) for CD-1 or for total ROS detection reagent, and an orange filter set (550ex/620em) for HE.
smiles,measurement,setting,value
O=C(Nc1ccc2c(c1)Oc1cc(NC(=O)N3CCOCC3)ccc1C21OC(=O)c2ccccc21)OCc1ccc([N+](=O)[O-])cc1 (centres unmarked) [CD-1],population of green positive cells in hypoxia-induced Jurkat samples,Jurkat cells,increased population of green positive cells
same,"hypoxia probe fluorescent signal in hypoxic HeLa cells, multiplexed with ROS dyes",HeLa cells,bright fluorescent signal

# Source: patent US8828678B2, “Self-immolative probes for enzyme activity detection” (Enzo Life Sciences, Inc., priority 2010, dated 2014)
